# Test results taken from patent US4048431A, “Alkylated derivatives of antibiotic BM123γ” (American Cyanamid Company, priority 1975, dated 1977).
# System: Escherichia coli US311
# Assay: in vivo protection of mice against lethal Escherichia coli US311 infection (single subcutaneous dose)
# Parameters: species or system Escherichia coli US311 in Carworth Farms CF-1 mice
# Conditions: Carworth Farms CF-1 mice, about 20 gm., infected intraperitoneally with lethal dose of E. coli US311 (10^-3 TSP dilution of 5 hour TSP blood culture)
# Procedure: These new substances show high in vivo antibacterial activity in mice against Escherichia coli US311 when administered by a single subcutaneous dose to groups of Carworth Farms CF-1 mice, weight about 20 gm., infected intraperitoneally with a lethal dose of this bacteria in a 10^- 3 trypticase soy broth TSP dilution of a 5 hour TSP blood culture. In Table VI below is set forth the in vivo activity of typical products of this invention (prepared from the indicated carbonyl reagents) against Escherichia coli US311 in mice. The activity is expressed in terms of the ED50 or the dose in mg./kg. of body weight required to protect 50% of the mice against E. coli.
row,Substance,ED50 (dose required to protect 50% of the mice against E. coli)
1,1-(3-pyridyl)ethyl-BM123γ,0.75 mg./kg. of body weight
2,"1,3-dimethylbuten(-2-)yl-BM123γ",0.3 mg./kg. of body weight
3,2-ethylhexyl-BM123γ,0.37 mg./kg. of body weight
4,cyclohexyl-BM123γ,0.75 mg./kg. of body weight
5,1-methyl-2-ethylbutyl-BM123γ,0.18 mg./kg. of body weight
6,1-methyl-2-methoxyethyl-BM123γ,0.3 mg./kg. of body weight
7,"1,2,4-trimethylheptyl-BM123γ",0.37 mg./kg. of body weight
8,bicyclo[3.2.1]octanyl-2-BM123γ,< 0.25 mg./kg. of body weight
9,3-methylcyclopentyl-BM123γ,0.25 mg./kg. of body weight
10,2-phenylcyclohexyl-BM123γ,0.38 mg./kg. of body weight
11,1-methyl-2-cyclohexylethyl-BM123γ,0.18 mg./kg. of body weight
12,1-methyl-2-carboethoxypropyl-BM123γ,0.18 mg./kg. of body weight
13,1-methyl-3-phenylpropen(-2-)yl-BM123γ,0.25 mg./kg. of body weight
14,3-methyl-6-isopropylcyclohexyl-BM123γ,0.38 mg./kg. of body weight
15,isopropyl-BM123γ,< 0.12 mg./kg. of body weight
16,1-ethylbutyl-BM123γ,0.39 mg./kg. of body weight
17,1-methyl-penten(-4-)yl-BM123γ,0.38 mg./kg. of body weight
18,1-methyl-2-cyclopenten(-2-)-yl-ethyl-BM123γ,< 0.12 mg./kg. of body weight
19,"1,4-dimethylpentyl-BM123γ",0.12 mg./kg. of body weight
20,2-ethylcyclopentyl-BM123γ,0.12 mg./kg. of body weight
21,"1,2,2-dimethylhydroxypropyl-BM123γ",0.18 mg./kg. of body weight
22,2-phenylethyl-BM123γ,0.18 mg./kg. of body weight

row,Substance,ED50 (dose required to protect 50% of the mice against E. coli)
1,"1-methyl-2-(N,N-dipropylamino)-ethyl-BM123γ",0.3 mg./kg. of body weight
2,1-methyl-butyn(-2-)yl-BM123γ,< 2.0 mg./kg. of body weight
3,2-methylcyclopentyl-BM123γ,0.25 mg./kg. of body weight
4,1-methylheptyl-BM123γ,0.38 mg./kg. of body weight
5,1-ethylpropyl-BM123γ,0.12 mg./kg. of body weight
6,1-methyl-hexen-4-yl-BM123γ,0.18 mg./kg. of body weight
7,1-ethylhexyl-BM123γ,0.18 mg./kg. of body weight
8,1-methyl-4-hydroxybutyl-BM123γ,0.18 mg./kg. of body weight
9,1-methyl-5-pentenyl-BM123γ,0.18 mg./kg. of body weight
10,ethyl-BM123γ,0.38 mg./kg. of body weight
11,1-methylpentyl-BM123γ,0.38 mg./kg. of body weight
12,cyclononyl-BM123γ,0.18 mg./kg. of body weight
13,"2,4-dimethylcyclopentyl-BM123γ",0.18 mg./kg. of body weight
14,"1-methyl-2,2-dimethoxyethyl-BM123γ",0.5 mg./kg. of body weight
15,"1,2,3-trimethylpentyl-BM123γ",0.39 mg./kg. of body weight
16,(2-carboxy-1-carboxymethyl)ethyl-BM123γ,0.5 mg./kg. of body weight
17,1-cyclopropylethyl-BM123γ,0.25 mg./kg. of body weight
18,1-methyl-2-acetylethyl-BM123γ,1.5 mg./kg. of body weight
19,1-methyl-2-(2-chlorophenyl)ethyl-BM123γ,0.37 mg./kg. of body weight
20,2-cyclohexenyl-BM123γ,0.25 mg./kg. of body weight
21,4-tetrahydrothiopyranyl-BM123γ,0.38 mg./kg. of body weight
22,1-methyl-3-methoxypropen(-2-)yl-BM123γ,> 2.0 mg./kg. of body weight

row,Substance,ED50 (dose required to protect 50% of the mice against E. coli)
1,1-ethyl-3-chloropropyl-BM123γ,0.12 mg./kg. of body weight
2,"2-ethyl-2-(3,4-dimethoxyphenyl)ethyl-BM123γ",1.0 mg./kg. of body weight
3,1-methyldecyl-BM123γ,> 2 mg./kg. of body weight
4,2-(tert-butylcarbamoyl)-1-methyl-ethyl-BM123γ,0.38 mg./kg. of body weight
5,"1,3,3-trimethylbutyl-BM123γ",0.18 mg./kg. of body weight
6,1-methyl-2-(3-methoxyphenyl)ethyl-BM123γ,0.30 mg./kg. of body weight
7,3-quinuclidinyl-BM123γ,0.39 mg./kg. of body weight
8,"1,3-dimethylhexyl-BM123γ",0.5 mg./kg. of body weight
9,2-acetamido-1-methylpropyl-BM123γ,0.50 mg./kg. of body weight
10,1-ethylpentyl-BM123γ,0.25 mg./kg. of body weight
11,1-methylnonyl-BM123γ,0.18 mg./kg. of body weight
12,5-methoxyl-2-tetralyl-BM123γ,0.18 mg./kg. of body weight
13,1-cyclopentylethyl-BM123γ,0.18 mg./kg. of body weight
14,1-methyloctyl-BM123γ,0.37 mg./kg. of body weight
15,(1-methylcyclo-3-hexenyl)methyl-BM123γ,0.18 mg./kg. of body weight
16,1-methyl-4-chlorobutyl-BM123γ,0.37 mg./kg. of body weight
17,"1-methyl-3,3-dimethoxypropyl-BM123γ",0.75 mg./kg. of body weight
18,cyclooctyl-BM123γ,0.18 mg./kg. of body weight
19,1-methyl-2-(4-chlorophenyl)ethyl-BM123γ,0.25 mg./kg. of body weight
20,1-benzyl-4-piperidyl-BM123γ,0.18 mg./kg. of body weight
21,1-[5-norbornene(2)]ethyl-BM123γ,< 0.12 mg./kg. of body weight
